Assay results as given in article PMC8952364, “Polyphenols as Inhibitors of Antibiotic Resistant Bacteria—Mechanisms Underlying Rutin Interference with Bacterial Virulence” (Pharmaceuticals, 2022).
Converted amounts (≈) assume the structure as drawn. Like-named read-outs stand apart in the source and are kept apart here.

Tests used:
[1] = tested on: S. aureus (ATCC 25923); design: method as in PMID 34073447; settings: cited from earlier work
[2] = tested on: E. coli (0157:H7 ATCC 51659); design: method as in PMID 34073447; settings: cited from earlier work
[3] = tested on: eleven antibiotic resistant strains of bacteria; experiment: Antimicrobial assay, summary over the examined strains; format: cell-based
Procedure: (§1) The bacterial suspension (0.5 Mc Farland) was prepared, and twenty-fold dilutions of these suspensions were mixed in a 1:10 ratio with the corresponding polyphenol dilution (0.0039–1 mg/mL). Microtiter plates were incubated at 37 °C for 24 h. The lowest concentrations without visible growth (under a binocular microscope) were defined as MICs. The bactericidal concentrations (MBCs) were determined by serial subcultivation of 2 μL of the well’s content and further incubation for 24 h at 37 °C. Streptomycin (SigmaAldrich, Darmstadt, Germany) was used as a positive control. The polyphenols were obtained from Extrasynthese, Rhone, France (rutin, isoquercitrin) and SigmaAldrich, Germany (hesperetin, hesperidin, naringenin, naringin, taxifolin, morin, chlorogenic acid, ferulic acid, p-coumaric acid, and gallic acid). The stock compounds were prepared in ethanol (30%), and adequate ethanol concentrations were used as the negative control in the assays. Experiments were done in triplicate.

[4] = tested on: P. aeruginosa (NRRLB-272); design: method as in PMID 34073447; settings: cited from earlier work
[5] = tested on: A. xylosoxidans 37F; experiment: Antimicrobial microdilution assay (MIC/MBC); format: cell-based, Achromobacter xylosoxidans; settings: for MIC: 37 °C, 24 h; for MBC: subcultivation, 24 h at 37 °C
Procedure: as §1

[6] = tested on: A. baumannii S2/2; experiment: Antimicrobial microdilution assay (MIC/MBC); format: cell-based, Acinetobacter baumannii; settings: for MIC: 37 °C, 24 h; for MBC: subcultivation, 24 h at 37 °C
Procedure: as §1

[7] = tested on: A. baumannii 6077/12; experiment: Antimicrobial microdilution assay (MIC/MBC); format: cell-based, Acinetobacter baumannii; settings: for MIC: 37 °C, 24 h; for MBC: subcultivation, 24 h at 37 °C
Procedure: as §1

[8] = tested on: E. coli IBRS E003; experiment: Antimicrobial microdilution assay (MIC/MBC); format: cell-based, Escherichia coli; settings: for MIC: 37 °C, 24 h; for MBC: subcultivation, 24 h at 37 °C
Procedure: as §1

[9] = tested on: E. coli IMD989; experiment: Antimicrobial microdilution assay (MIC/MBC); format: cell-based, Escherichia coli; settings: for MIC: 37 °C, 24 h; for MBC: subcultivation, 24 h at 37 °C
Procedure: as §1

[10] = tested on: P. aeruginosa IBRS P001 biofilm; experiment: Crystal violet antibiofilm assay (biofilm formation); format: cell-based, Pseudomonas aeruginosa; settings: MIC and sub-MIC, 24 h, crystal violet, Figure 1
Procedure: After incubation, each well was washed twice with sterile PBS (phosphate-buffered saline, pH 7.4) and fixed with methanol for 10 min. After removal of methanol the plate was air-dried. The biofilm was stained with 0.1% crystal violet (Bio-Merieux, Marcy l’Etoile, France) for 30 min. The plate was washed with water, air dried, and the stain was dissolved with 200 μL of 96% ethanol (Zorka, Sabac, Serbia). The absorbance was read at 620 nm on a Multiskan™ FC microplate photometer (Thermo Scientific™, Waltham, MA, USA). The results are presented as biofilm forming capacity (%) compared to control.

[11] = tested on: HaCaT cells; experiment: Cytotoxicity in HaCaT cell line (crystal violet assay); format: cell-based, human; settings: HaCaT
Procedure: For determination of the polyphenols’ cytotoxic effect, a crystal violet assay was used, with modifications. The cytotoxic effect of polyphenols was analyzed on spontaneously immortalized human skin keratinocytes (HaCaT, AddexBio No. T0020001, San Diego, CA, USA) cell lines. […] Cells (1 × 10^4 cells/well) were seeded in a 96-well plate (Sarstedt, Nümbrecht, Germany) 24 h before treatment. […] Cells were incubated with the compounds for 24 h. […] After crystal violet was removed, the plates were washed in a stream of tap water and left to air-dry at room temperature for 24 h. The absorbance was measured in a microplate reader (Multiskan™ FC Microplate Photometer, Thermo Scientific™) at 590 nm. The results were expressed as IC50 value in μg/mL. The criterion used to categorize the cytotoxic activity polyphenols was as follows: […] All analyses were performed in triplicate; each replicate was also quantified three times. Data were expressed as mean standard deviation, where applicable.

[12] = tested on: S. infantis 1371/1; experiment: Antimicrobial microdilution assay (MIC/MBC); format: cell-based, Salmonella Infantis; settings: for MIC: 37 °C, 24 h; for MBC: subcultivation, 24 h at 37 °C
Procedure: as §1

[13] = tested on: Methicillin resistant S. aureus IBRS MRSA 011; experiment: Antimicrobial microdilution assay (MIC/MBC); format: cell-based, Staphylococcus aureus; settings: for MIC: 37 °C, 24 h; for MBC: subcultivation, 24 h at 37 °C
Procedure: as §1

[14] = tested on: K. pneumoniae Ni9; experiment: Antimicrobial microdilution assay (MIC/MBC); format: cell-based, Klebsiella pneumoniae; settings: for MIC: 37 °C, 24 h; for MBC: subcultivation, 24 h at 37 °C
Procedure: as §1

[15] = tested on: K. pneumoniae IT977; experiment: Antimicrobial microdilution assay (MIC/MBC); format: cell-based, Klebsiella pneumoniae; settings: for MIC: 37 °C, 24 h; for MBC: subcultivation, 24 h at 37 °C
Procedure: as §1

[16] = tested on: P. aeruginosa IBRS P001; experiment: Antimicrobial microdilution assay (MIC/MBC); format: cell-based, Pseudomonas aeruginosa; settings: for MIC: 37 °C, 24 h; for MBC: subcultivation, 24 h at 37 °C
Procedure: as §1

[17] = tested on: P. aeruginosa MMA83; experiment: Antimicrobial microdilution assay (MIC/MBC); format: cell-based, Pseudomonas aeruginosa; settings: for MIC: 37 °C, 24 h; for MBC: subcultivation, 24 h at 37 °C
Procedure: as §1

[18] = tested on: S. aureus Newman and S. aureus Newman Δcoa; design: method as in PMID 32130467; settings: cited from earlier work
[19] = tested on: S. aureus ATCC 11632; design: method as in doi:10.5937/leksir2040057K; settings: cited from earlier work
[20] = tested on: S. aureus clinical isolate; design: method as in doi:10.5937/leksir2040057K; settings: cited from earlier work

For `COc1ccc([C@@H]2CC(=O)c3c(O)cc(O[C@@H]4O[C@H](CO[C@@H]5O[C@@H](C)[C@H](O)[C@@H](O)[C@H]5O)[C@@H](O)[C@H](O)[C@H]4O)cc3O2)cc1O` [Hesperidin, hesperidin], the MIC [1] is given as 1.53 mg/mL (≈ 2510 µM), the MIC [2] is given as 1.13 mg/mL (≈ 1850 µM) and the “MIC towards a range of antibiotic-resistant bacterial strains” value ([3]; summary of Table 1) is given as at least 0.5 mg/mL. For the same compound, the MIC [4] was 1.27 mg/mL (≈ 2080 µM), the MIC [5] was 1 mg/mL (≈ 1640 µM) and the MBC [5] was 1 mg/mL (≈ 1640 µM). For the same compound, the MIC [6] was 0.5 mg/mL (≈ 819 µM), the MBC [6] was 0.5 mg/mL (≈ 819 µM) and the MIC [7] was 0.5 mg/mL (≈ 819 µM). The MBC [7] was 0.5 mg/mL (≈ 819 µM), the MIC [8] was over 1 mg/mL and the MBC [8] was over 1 mg/mL. The MIC [9] was over 1 mg/mL, the MBC [9] was over 1 mg/mL and the “reduction of biofilm formation (biomass), in words” value [10] was “significant (****, p < 0.0001) reduction”. The “cytotoxicity towards HaCaT, in words” value ([11]; 24 h) was “non-cytotoxic properties”, the “IC50 (compound concentration that inhibited 50% of the cell growth)” value ([11]; 24 h treatment, crystal violet) was over 1 mg/mL and the cytotoxicity category ([11]; maximal tested concentrations (1 mg/mL)) was “no cytotoxicity (IC50 > 501 µg/mL = no cytotoxicity)”. It also gave an MIC [12] of over 1 mg/mL, an MBC [12] of over 1 mg/mL and an MIC [13] of 0.5 mg/mL (≈ 819 µM). It also gave an MBC [13] of 1 mg/mL (≈ 1640 µM), an MIC [14] of 1 mg/mL (≈ 1640 µM) and an MBC [14] of 1 mg/mL (≈ 1640 µM). For the same compound, the MIC [15] was 1 mg/mL (≈ 1640 µM), the MBC [15] was 1 mg/mL (≈ 1640 µM) and the MIC [16] was 0.5 mg/mL (≈ 819 µM). It also gave an MBC [16] of 1 mg/mL (≈ 1640 µM), an MIC [17] of 1 mg/mL (≈ 1640 µM) and an MBC [17] of 1 mg/mL (≈ 1640 µM).

In the case of `O=c1c(O[C@@H]2O[C@H](CO)[C@@H](O)[C@H](O)[C@H]2O)c(-c2ccc(O)c(O)c2)oc2cc(O)cc(O)c12` [Isoquercitrin, isoquercitrin], the MIC ([3]; antibiotic resistant strains of Table 1, read-out: lowest MIC among the examined strains) is given as 250 µg/mL (≈ 538 µM), the “MIC (no inhibitory activity up to)” value [18] is given as over 1024 µg/mL and the MIC [19] is given as 0.1 mg/mL (≈ 215 µM). The MIC ([5]; Achromobacter xylosoxidans, 37F, read-out: MIC) was 0.5 mg/mL (≈ 1080 µM), the MBC ([5]; Achromobacter xylosoxidans, 37F, read-out: MBC) was 0.5 mg/mL (≈ 1080 µM) and the MIC ([6]; Acinetobacter baumannii, S2/2, read-out: MIC) was 0.5 mg/mL (≈ 1080 µM). For the same compound, the MBC ([6]; Acinetobacter baumannii, S2/2, read-out: MBC) was 0.5 mg/mL (≈ 1080 µM), the MIC ([7]; Acinetobacter baumannii, 6077/12, read-out: MIC) was 0.25 mg/mL (≈ 538 µM) and the MBC ([7]; Acinetobacter baumannii, 6077/12, read-out: MBC) was 0.5 mg/mL (≈ 1080 µM). For the same compound, the MIC [20] was 0.2 mg/mL (≈ 431 µM), the MIC ([8]; Escherichia coli, IBRSE003, read-out: MIC) was over 1 mg/mL and the MBC ([8]; Escherichia coli, IBRSE003, read-out: MBC) was over 1 mg/mL. For the same compound, the MIC ([9]; Escherichia coli, IMD989, read-out: MIC) was 1 mg/mL (≈ 2150 µM), the MBC ([9]; Escherichia coli, IMD989, read-out: MBC) was 1 mg/mL (≈ 2150 µM) and the “reduction of biofilm formation (biomass), in words” value [10] was “promising (***, p ≤ 0.001) potential to reduce the biomass”. The IC50 ([11]; Homo sapiens, 24 h, read-out: IC50 (compound concentration that inhibited 50% of the cell growth)) was over 1000 µg/mL, the MIC ([12]; Salmonella enterica, 1371/1, read-out: MIC) was 1 mg/mL (≈ 2150 µM) and the MBC ([12]; Salmonella enterica, 1371/1, read-out: MBC) was 1 mg/mL (≈ 2150 µM). It also gave an MIC ([13]; Staphylococcus aureus, MRSA, read-out: MIC) of 0.5 mg/mL (≈ 1080 µM), an MBC ([13]; Staphylococcus aureus, MRSA, read-out: MBC) of 1 mg/mL (≈ 2150 µM) and an MIC ([14]; Klebsiella pneumoniae, NI9, read-out: MIC) of 0.5 mg/mL (≈ 1080 µM). For the same compound, the MBC ([14]; Klebsiella pneumoniae, NI9, read-out: MBC) was 1 mg/mL (≈ 2150 µM), the MIC ([15]; Klebsiella pneumoniae, IT977, read-out: MIC) was 1 mg/mL (≈ 2150 µM) and the MBC ([15]; Klebsiella pneumoniae, IT977, read-out: MBC) was 1 mg/mL (≈ 2150 µM). For the same compound, the MIC ([16]; Pseudomonas aeruginosa, IBRSP001, read-out: MIC) was 0.25 mg/mL (≈ 538 µM), the MBC ([16]; Pseudomonas aeruginosa, IBRSP001, read-out: MBC) was 0.5 mg/mL (≈ 1080 µM) and the MIC ([17]; Pseudomonas aeruginosa, MMA83, read-out: MIC) was 0.25 mg/mL (≈ 538 µM). For the same compound, the MBC ([17]; Pseudomonas aeruginosa, MMA83, read-out: MBC) was 0.25 mg/mL (≈ 538 µM).
